The values that follow come from article PMC10235067, “Increased renal elimination of endogenous and synthetic pyrimidine nucleosides in concentrative nucleoside transporter 1 deficient mice” (Nature Communications, 2023).

Structures are written as SMILES.

A short description of data set [1]: Gemcitabine urine pharmacokinetics (renal excretion) in Slc28a1+/+ and Slc28a1-/- mice. The settings on record: WT and KO mouse urine pooled 10 min to 2 h after dFdC 50 mg/kg i.v. Here is the method:
THU was added to the mouse urine samples upon collection and frozen until analysis. […] Five microliters of the diluted samples were transferred to a 96-well autosampler plate then 10 µL of internal standard mixture was added and mixed. […] The plate was then transferred to the 4 °C autosampler for analysis.
The chromatographic separation was performed on a Thermo Accucore aQ 2.6 µm, 100 ×2.1 mm column at 30 °C using a gradient with a 10 µL injection volume. The mobiles phases were 1 mM ammonium acetate in deionized water pH 6.8 and acetonitrile. The total run time was 5.5 min. […] The LC–MS/MS analysis was conducted on a Thermo Vanquish UHPLC with a TSQ Quantiva mass spectrometer equipped with an electrospray ionization source.

A short description of data set [2]: Gemcitabine plasma pharmacokinetics in Slc28a1+/+ and Slc28a1-/- mice. Particulars: Slc28a1+/+ and Slc28a1-/- mice; single i.v. dFdC 50 mg/kg.

Description for CNT1: Linearity was established for analytes over the concentration ranges observed and the lower limit of quantification of the LC–MS/MS assay was approximately 0.1 ng/ml for each analyte (Fig. S2).
Standard solutions of all nucleotide targets were serially diluted to generate calibration solutions at concentrations of 0.0, 0.0001, 0.001, 0.01, 0.1, 1.0, and 10 µg/ml. Urine samples were prepared by adding 20 µL of urine solution to 80 µL of 50:50 H2O:MeOH containing internal standard, vortexing and centrifuging at 20,000 × g; then, 50 µL aliquots were placed into glass vials, dried in a SpeedVac and reconstituted in 5% MeOH with 0.1% formic acid for injection.
Samples were quantified using a heated electrospray ionization source (HESI) on a Thermo Scientific TQS Quantiva triple quadrupole mass spectrometer, and separation was achieved using a Thermo Scientific Ultimate 3000 HPLC equipped with an Agilent 120 SB-C18 reversed-phase column (2 × 100 mm, 2.7 µm particle size) maintained at 40 °C. […] For all experiments, the capillary voltage was set to 4.5 kV with a capillary temperature of 350 °C, a vaporizer temperature of 100 °C, a sheath gas flow of 12, an auxiliary gas flow of 13, and a 1.6 sweep gas. For selected reaction monitoring (SRM) mode, Q1 and Q3 were set to 0.7 full width at half maximum (FWHM) resolution, a cycle time of 0.8 s, and a CID gas pressure of 1.5 mTorr.

Turning to `Nc1ccn([C@@H]2O[C@H](COP(=O)(O)OP(=O)(O)OP(=O)(O)O)[C@@H](O)C2(F)F)c(=O)n1` [dFdC-TP, dFdC triphosphate], in data set [1], the “level in urine after dFdC dosing” value is “below the limits of quantification”. The “plasma level after dFdC dosing” value in data set [2] is “did not detect appreciable quantities”.

Take `Nc1nc2c(ncn2[C@H]2C[C@H](O)[C@@H](CO)O2)c(=O)[nH]1` [deoxyguanosine]: the Concentration in urine entry in the data set with CNT1 (Slc28a1+/+ and Slc28a1-/- mice, 12 h starvation) was “undetectable”.

As for `O=c1ccn([C@H]2C[C@H](O)[C@@H](CO)O2)c(=O)[nH]1` [deoxyuridine], the “fold increase of content in urine of Slc28a1-/- mice” value in the data set with CNT1 (Slc28a1-/- vs Slc28a1+/+, urine collected over 12 h starvation, 8-week-old mice, n = 6) was determined as 2.4 fold.
